Test system: HBV
Experiment: HBV replication inhibition assay (BDNA assay) in HepG2.2.15 cells
Format: cell-based, Hepatitis B virus
Settings: 6 days, encapsidated HBV DNA in supernatant
In short: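 HepG2.2.15 cells were dosed with serially diluted compound (0.5% DMSO), with compound and medium renewed at day 3. Day-6 supernatants were DNase-treated and proteinase K-lysed, and encapsidated HBV DNA was quantified by branched-DNA assay. Percent inhibition was set against DMSO controls and EC50 obtained by nonlinear fit.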

Compound	EC50 [nM]
C[C@@H]1Cc2nn3c(c2CN1C(=O)Nc1ccc(F)c(C#N)c1)C(F)(F)CC(O)(CO)CC3 (single isomer, unassigned) [Example 126, (3R,9S*)—N-(3-Cyano-4-fluorophenyl)-11,11-difluoro-9-hydroxy-9-(hydroxymethyl)-3-methyl-3,4,8,9,10,11-hexahydro-1H-pyrido[4′,3′:3,4]pyrazolo[1,5-a]azepine-2(7H)-carboxamide]	5
C[C@@H]1Cc2nn3c(c2CN1C(=O)Nc1ccnc(Br)c1F)C(F)(F)CC(O)(CF)CC3 (single isomer, unassigned) [Example 129, (3R,9S*)—N-(2-Bromo-3-fluoropyridin-4-yl)-11,11-difluoro-9-(fluoromethyl)-9-hydroxy-3-methyl-3,4,8,9,10,11-hexahydro-1H-pyrido[4′,3′:3,4]pyrazolo[1,5-a]azepine-2(7H)-carboxamide]	6
C[C@@H]1Cc2nn3c(c2CN1C(=O)Nc1ccc(F)c(C#N)c1)C(F)(F)CC(O)(CF)CC3 (single isomer, unassigned) [Example 130, (3R,9S*)—N-(3-Cyano-4-fluorophenyl)-11,11-difluoro-9-(fluoromethyl)-9-hydroxy-3-methyl-3,4,8,9,10,11-hexahydro-1H-pyrido[4′,3′:3,4]pyrazolo[1,5-a]azepine-2(7H)-carboxamide]	2
N#Cc1cc(NC(=O)N2CCc3nn4c(c3C2)C(F)(F)CC(CO)CC4)ccc1F (single isomer, unassigned) [Example 134, (S*)—N-(3-Cyano-4-fluorophenyl)-11,11-difluoro-9-(hydroxymethyl) -3,4,8,9,10,11-hexahydro-1H-pyrido[4′,3′:3,4]pyrazolo[1,5-a]azepine-2(7H)-carboxamide]	17
N#Cc1cc(NC(=O)N2CCc3nn4c(c3C2)C(F)(F)CC(CO)CC4)ccc1F (single isomer, unassigned) [Example 136, (R*)—N-(3-Cyano-4-fluorophenyl)-11,11-difluoro-9-(hydroxymethyl) -3,4,8,9,10,11-hexahydro-1H-pyrido[4′,3′:3,4]pyrazolo[1,5-a]azepine-2(7H)-carboxamide]	5
O=C(Nc1ccnc(Br)c1F)N1CCc2nn3c(c2C1)C(F)(F)CC(O)CC3 (single isomer, unassigned) [Example 137, (R*)—N-(2-Bromo-3-fluoropyridin-4-yl)-11,11-difluoro-9-hydroxy-3,4,8,9,10,11-hexahydro-1H-pyrido[4′,3′:3,4]pyrazolo[1,5-a]azepine-2(7H)-carboxamide]	2
N#Cc1cc(NC(=O)N2CCc3nn4c(c3C2)C(F)(F)CC(O)CC4)ccc1F (single isomer, unassigned) [Example 138, (R*)—N-(3-Cyano-4-fluorophenyl)-11,11-difluoro-9-hydroxy-3,4,8,9,10,11-hexahydro-1H-pyrido[4′,3′:3,4]pyrazolo[1,5-a]azepine-2(7H)-carboxamide]	1
O=C(Nc1ccnc(C(F)F)c1F)N1CCc2nn3c(c2C1)C(F)(F)CC(O)CC3 (single isomer, unassigned) [Example 139, (R*)—N-(2-(Difluoromethyl)-3-fluoropyridin-4-yl)-11,11-difluoro-9-hydroxy-3,4,8,9,10,11-hexahydro-1H-pyrido[4′,3′:3,4]pyrazolo[1,5-a]azepine-2(7H)-carboxamide]	21
O=C(Nc1ccnc(Br)c1F)N1CCc2nn3c(c2C1)C(F)(F)CC(O)CC3 (single isomer, unassigned) [Example 140, (S*)—N-(2-Bromo-3-fluoropyridin-4-yl)-11,11-difluoro-9-hydroxy-3,4,8,9,10,11-hexahydro-1H-pyrido[4′,3′:3,4]pyrazolo[1,5-a]azepine-2(7H)-carboxamide]	27
N#Cc1cc(NC(=O)N2CCc3nn4c(c3C2)C(F)(F)CC(O)CC4)ccc1F (single isomer, unassigned) [Example 141, (S*)—N-(3-Cyano-4-fluorophenyl)-11,11-difluoro-9-hydroxy-3,4,8,9,10,11-hexahydro-1H-pyrido[4′,3′:3,4]pyrazolo[1,5-a]azepine-2(7H)-carboxamide]	16

Reference: US20220323455A1, “FUSED HETEROCYCLIC DERIVATIVES AS ANTIVIRAL AGENTS” (priority 2019, published 2022)
